Biological target: T1, human TRPM8 (Homo sapiens, UniProt Q7Z2W7)
T1 construct: expressed in transfected cells
Assay: Menthol-induced Ca2+ influx in HEK293 cells stably expressing human TRPM8
Type: cell-based
Conditions: 30 microM menthol-induced Ca2+ influx, HEK293 cells stably expressing human TRPM8, 11-point dose-response
Protocol: Measurement of the Menthol-Induced Ca^2+ Influx in HEK293 Cells Stably Expressing Human TRPM8
A cell-based Ca^2+ influx assay using HEK293 cells stably expressing human TRPM8 was used to identify the activity of compounds.
HEK293 cells stably expressing human TRPM8 were grown in T175 flasks at 37° C. in a 5% CO2 humidified incubator to about 80% confluence. Media composition consisted of Dulbecco's Modified Eagle Medium (high glucose), 10% fetal calf serum (FCS), 100 units/ml Penicillin, 100 microg/ml Streptomycin and 600 microg/ml Geneticine. At 24 hours prior to assay, cells were seeded in poly-D-lysine coated 384-well plates (BD FALCON) at a density of 30,000 cells per well in culture medium and grown overnight in 5% CO2 at 37° C. On the assay day, growth media was removed and cells were loaded with 0.5 microM Fluo4-AM (Molecular Probes) and 0.005% Pluronic F-127 dissolved in assay buffer (Hank's balanced salt solution (HBSS), 19.4 mM HEPES pH7.4, 2.5 mM Probenecid) for 1 hour at room temperature. After washing with assay buffer, the cells were preincubated with various concentrations of the compounds for 5 min. The changes in intracellular calcium concentration by addition of 30 microM menthol were monitored by the cell imaging technology by Hamamatsu Photonics's Functional Drug Screening System (FDSS).
The IC50 values for compounds of the present invention were determined from 11-point dose-response studies. Curves were generated using the average of duplicate wells for each data point. Finally, the IC50 values are calculated with the best-fit dose curve determined by XLfit (ID Business Solutions Ltd.).

T1 sequence (Q7Z2W7 whole entry): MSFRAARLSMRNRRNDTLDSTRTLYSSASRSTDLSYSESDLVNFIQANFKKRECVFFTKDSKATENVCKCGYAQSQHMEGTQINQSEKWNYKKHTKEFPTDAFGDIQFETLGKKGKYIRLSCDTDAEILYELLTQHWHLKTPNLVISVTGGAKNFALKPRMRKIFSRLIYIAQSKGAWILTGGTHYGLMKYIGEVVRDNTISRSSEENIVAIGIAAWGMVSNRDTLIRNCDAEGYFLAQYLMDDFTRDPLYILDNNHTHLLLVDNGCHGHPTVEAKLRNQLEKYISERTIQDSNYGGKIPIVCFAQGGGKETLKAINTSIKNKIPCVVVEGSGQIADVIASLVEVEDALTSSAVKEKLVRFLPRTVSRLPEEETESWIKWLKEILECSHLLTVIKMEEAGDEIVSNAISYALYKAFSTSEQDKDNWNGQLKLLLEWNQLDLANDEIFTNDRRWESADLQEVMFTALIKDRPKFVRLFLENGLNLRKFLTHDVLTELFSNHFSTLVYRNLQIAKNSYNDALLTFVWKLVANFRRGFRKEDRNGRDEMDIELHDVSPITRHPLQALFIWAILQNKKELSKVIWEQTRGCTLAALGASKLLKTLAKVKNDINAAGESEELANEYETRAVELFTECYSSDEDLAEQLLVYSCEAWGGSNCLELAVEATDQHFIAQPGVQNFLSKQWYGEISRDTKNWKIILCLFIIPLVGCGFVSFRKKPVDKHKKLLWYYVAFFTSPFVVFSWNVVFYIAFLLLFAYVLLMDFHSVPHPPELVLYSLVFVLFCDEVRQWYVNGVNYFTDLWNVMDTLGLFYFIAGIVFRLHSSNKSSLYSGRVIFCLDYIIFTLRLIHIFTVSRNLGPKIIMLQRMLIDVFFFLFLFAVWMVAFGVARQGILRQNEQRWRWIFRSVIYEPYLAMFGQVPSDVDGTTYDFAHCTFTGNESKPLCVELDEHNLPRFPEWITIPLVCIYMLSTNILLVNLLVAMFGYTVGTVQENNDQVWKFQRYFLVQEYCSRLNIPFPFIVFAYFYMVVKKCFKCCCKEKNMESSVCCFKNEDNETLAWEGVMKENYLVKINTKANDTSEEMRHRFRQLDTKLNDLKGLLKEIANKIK

| IC50 [nM] | Compound |
| --- | --- |
| < 1000 | Cc1cc(C(=O)O)ccc1S(=O)(=O)N(Cc1ccc2c(cnn2C2CC2)c1)c1ncc(Cl)cc1Cl [Example 34, 4-(N-((1-Cyclopropyl-1H-indazol-5-yl)methyl)-N-(3,5-dichloropyridin-2-yl)sulfamoyl)-3-methylbenzoic acid] |
| < 1000 | Cn1ccc2cc(CN(c3ncc(C(F)(F)F)cc3Cl)S(=O)(=O)c3ccc(C(=O)O)cc3Cl)cnc21 [Example 35, 3-Chloro-4-(N-(3-chloro-5-(trifluoromethyl)pyridin-2-yl)-N-((1-methyl-1H-pyrrolo[2,3-b]pyridin-5-yl)methyl)sulfamoyl)benzoic acid] |
| 1000 to 10000 | Cn1ccc2cc(CN(c3ncc(Cl)cc3Cl)S(=O)(=O)c3ccc(C(=O)O)cc3Cl)cnc21 [Example 36, 3-Chloro-4-(N-(3,5-dichloropyridin-2-yl)-N-((1-methyl-1H-pyrrolo[2,3-b]pyridin-5-yl)methyl)sulfamoyl)benzoic acid] |
| < 1000 | Cn1ccc2cc(CN(c3ncc(C(F)(F)F)cc3Cl)S(=O)(=O)c3ccc(C(=O)O)cc3)cnc21 [Example 37, 4-(N-(3-Chloro-5-(trifluoromethyl)pyridin-2-yl)-N-((1-methyl-1H-pyrrolo[2,3-b]pyridin-5-yl)methyl)sulfamoyl)benzoic acid] |
| < 1000 | O=C(O)c1ccc(S(=O)(=O)N(Cc2cnc3ccccc3c2)c2ncc(C(F)(F)F)cc2Cl)cc1 [Example 38, 4-(N-(3-Chloro-5-(trifluoromethyl)pyridin-2-yl)-N-(quinolin-3-ylmethyl)sulfamoyl)benzoic acid] |
| < 1000 | O=C(O)c1ccc(S(=O)(=O)N(Cc2ccc3ncccc3c2)c2ncc(C(F)(F)F)cc2Cl)cc1 [Example 39, 4-(N-(3-Chloro-5-(trifluoromethyl)pyridin-2-yl)-N-(quinolin-6-ylmethyl)sulfamoyl)benzoic acid] |
